Experimental data reported in ChEMBL document CHEMBL1909046, “DrugMatrix in vitro pharmacology data”.

Experiments:
[1] = target: T1, Alpha-1D adrenergic receptor (Homo sapiens, UniProt P25100); type: cell membranes, HEK293, Membrane; details: hek293; further: in other assays of this panel Not Active means under 50% inhibition at 10 µM
T1 sequence (P25100 whole entry): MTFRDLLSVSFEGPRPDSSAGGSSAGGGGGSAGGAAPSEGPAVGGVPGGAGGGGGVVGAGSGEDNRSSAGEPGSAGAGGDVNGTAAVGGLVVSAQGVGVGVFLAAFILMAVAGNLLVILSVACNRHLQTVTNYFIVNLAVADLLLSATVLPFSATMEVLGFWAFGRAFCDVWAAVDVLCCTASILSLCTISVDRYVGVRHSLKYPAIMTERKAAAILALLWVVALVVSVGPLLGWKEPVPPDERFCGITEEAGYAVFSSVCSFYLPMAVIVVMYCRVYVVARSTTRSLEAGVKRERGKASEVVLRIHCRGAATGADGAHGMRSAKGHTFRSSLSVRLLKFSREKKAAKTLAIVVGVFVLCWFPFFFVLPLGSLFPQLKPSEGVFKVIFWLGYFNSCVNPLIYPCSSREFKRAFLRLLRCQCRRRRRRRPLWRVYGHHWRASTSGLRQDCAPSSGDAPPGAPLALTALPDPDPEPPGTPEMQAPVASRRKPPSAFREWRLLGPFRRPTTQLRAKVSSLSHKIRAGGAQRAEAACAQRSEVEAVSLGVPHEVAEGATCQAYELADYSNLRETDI

[2] = target: 5-hydroxytryptamine receptor 4 (Cavia porcellus, UniProt O70528); type: cell membranes, Dunkin-Hartley, Striatum, Membrane; further: in other assays of this panel Not Active means under 50% inhibition at 10 µM
Sequence of 5-hydroxytryptamine receptor 4 (O70528 whole entry): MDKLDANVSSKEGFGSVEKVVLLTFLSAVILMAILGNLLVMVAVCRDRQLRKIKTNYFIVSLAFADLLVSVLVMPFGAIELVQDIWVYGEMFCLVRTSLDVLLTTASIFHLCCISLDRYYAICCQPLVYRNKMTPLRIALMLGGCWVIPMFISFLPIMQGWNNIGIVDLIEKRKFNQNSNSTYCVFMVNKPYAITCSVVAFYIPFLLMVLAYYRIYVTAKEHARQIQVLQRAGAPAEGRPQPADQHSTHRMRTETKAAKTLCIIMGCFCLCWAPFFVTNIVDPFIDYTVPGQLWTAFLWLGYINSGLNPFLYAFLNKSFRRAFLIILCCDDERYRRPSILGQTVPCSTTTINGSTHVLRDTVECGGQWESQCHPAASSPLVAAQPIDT

D(3) dopamine receptor = D(3) dopamine receptor (Homo sapiens, UniProt P35462); assay: DRUGMATRIX: Dopamine D3 radioligand binding (ligand: [3H] Spiperone); type: cell membranes, CHO, Membrane; details: cho
Sequence of D(3) dopamine receptor (P35462 whole entry): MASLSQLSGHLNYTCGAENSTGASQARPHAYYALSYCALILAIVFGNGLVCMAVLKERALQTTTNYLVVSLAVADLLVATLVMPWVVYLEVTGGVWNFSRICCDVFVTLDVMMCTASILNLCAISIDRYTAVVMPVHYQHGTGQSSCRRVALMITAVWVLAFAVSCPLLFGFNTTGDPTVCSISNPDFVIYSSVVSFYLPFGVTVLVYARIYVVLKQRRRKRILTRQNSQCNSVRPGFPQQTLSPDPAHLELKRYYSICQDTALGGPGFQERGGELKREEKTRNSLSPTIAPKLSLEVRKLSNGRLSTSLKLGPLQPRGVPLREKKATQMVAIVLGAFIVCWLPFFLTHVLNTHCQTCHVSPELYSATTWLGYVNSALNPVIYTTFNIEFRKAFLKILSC

Cathepsin G = target: T2, Cathepsin G (Homo sapiens, UniProt P08311); type: tissue-based; details: neutrophil;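 further: inhibition of Cathepsin G enzyme activity, tested on an AMC-conjugated peptide substrate; in other assays of this panel Not Active means under 50% inhibition at 10 µM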
T2 sequence (P08311 whole entry): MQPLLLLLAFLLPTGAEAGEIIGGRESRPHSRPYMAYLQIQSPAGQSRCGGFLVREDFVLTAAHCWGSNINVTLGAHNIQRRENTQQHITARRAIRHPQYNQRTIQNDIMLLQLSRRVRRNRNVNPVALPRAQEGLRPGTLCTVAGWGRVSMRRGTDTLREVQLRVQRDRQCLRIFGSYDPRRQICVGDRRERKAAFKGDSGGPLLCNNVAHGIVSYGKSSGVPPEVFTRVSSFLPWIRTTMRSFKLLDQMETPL

[3] = target: T3, Receptor-type tyrosine-protein phosphatase C (Homo sapiens, UniProt P08575); parameters: species or system Escherichia coli;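 further: inhibition of CD45 enzyme activity measured using DiFMUP as substrate; in other assays of this panel Not Active means under 50% inhibition at 10 µM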
T3 sequence (P08575 whole entry): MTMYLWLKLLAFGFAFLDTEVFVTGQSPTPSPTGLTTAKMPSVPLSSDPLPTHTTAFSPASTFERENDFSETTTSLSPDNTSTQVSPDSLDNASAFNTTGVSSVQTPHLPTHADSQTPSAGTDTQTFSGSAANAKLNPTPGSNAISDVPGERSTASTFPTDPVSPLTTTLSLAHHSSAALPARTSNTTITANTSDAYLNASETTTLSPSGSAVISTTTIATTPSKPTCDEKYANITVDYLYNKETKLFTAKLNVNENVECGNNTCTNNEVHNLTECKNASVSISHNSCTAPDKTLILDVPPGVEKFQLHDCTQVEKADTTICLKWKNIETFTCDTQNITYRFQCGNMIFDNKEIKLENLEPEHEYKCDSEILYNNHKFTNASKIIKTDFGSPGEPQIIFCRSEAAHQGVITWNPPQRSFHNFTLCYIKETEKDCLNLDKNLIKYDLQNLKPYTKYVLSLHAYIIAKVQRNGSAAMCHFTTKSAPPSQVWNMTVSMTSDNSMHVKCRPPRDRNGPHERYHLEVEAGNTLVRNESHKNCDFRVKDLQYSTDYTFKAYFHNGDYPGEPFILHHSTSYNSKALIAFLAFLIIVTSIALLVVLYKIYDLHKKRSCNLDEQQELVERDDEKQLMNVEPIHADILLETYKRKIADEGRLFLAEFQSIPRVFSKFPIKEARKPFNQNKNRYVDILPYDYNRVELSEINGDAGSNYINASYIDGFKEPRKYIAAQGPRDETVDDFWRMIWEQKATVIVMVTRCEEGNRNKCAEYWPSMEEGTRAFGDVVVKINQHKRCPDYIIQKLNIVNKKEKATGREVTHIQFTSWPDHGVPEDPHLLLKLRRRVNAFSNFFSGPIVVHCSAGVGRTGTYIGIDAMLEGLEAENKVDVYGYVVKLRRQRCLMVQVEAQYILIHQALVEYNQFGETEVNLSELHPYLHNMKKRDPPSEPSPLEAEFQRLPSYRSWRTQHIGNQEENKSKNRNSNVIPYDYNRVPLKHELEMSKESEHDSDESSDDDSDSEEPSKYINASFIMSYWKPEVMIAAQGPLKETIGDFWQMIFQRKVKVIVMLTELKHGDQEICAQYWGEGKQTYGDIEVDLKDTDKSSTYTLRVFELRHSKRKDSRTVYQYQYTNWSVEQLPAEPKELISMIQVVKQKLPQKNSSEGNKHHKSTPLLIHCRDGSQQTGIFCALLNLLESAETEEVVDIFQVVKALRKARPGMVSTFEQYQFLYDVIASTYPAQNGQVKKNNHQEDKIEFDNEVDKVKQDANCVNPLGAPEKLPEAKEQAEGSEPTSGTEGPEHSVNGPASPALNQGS

| Structure (SMILES) | IC50 [1] | IC50 [2] | IC50 (D(3) dopamine receptor) | IC50 (Cathepsin G) | IC50 [3] | IC50 ([2]; read-out: IC50) [nM] | Ki ([2]; read-out: Ki) [nM] |
| --- | --- | --- | --- | --- | --- | --- | --- |
| COCCc1ccc(OCC(O)CNC(C)C)cc1 (stereo not drawn) [METOPROLOL] | Not Active | Not Active | Not Active | Not Active | Not Active | – | – |
| COc1cc2nc(N3CCN(C(=O)C4COc5ccccc5O4)CC3)nc(N)c2cc1OC (stereo not drawn) [DOXAZOSIN] | – | – | Not Active | Not Active | Not Active | 764 | 127 |
| NCCCCCC(=O)O [AMINOCAPROIC ACID] | Not Active | Not Active | Not Active | Not Active | Not Active | – | – |
| CC(C)(C)NCC(O)c1cc(Cl)c(N)c(Cl)c1 (stereo not drawn) [CLENBUTEROL] | Not Active | Not Active | Not Active | Not Active | Not Active | – | – |
| CCCN1C[C@H](CSC)C[C@@H]2c3cccc4[nH]cc(c34)C[C@H]21 [PERGOLIDE] | – | Not Active | – | Not Active | Not Active | – | – |
| CN(C)C(=O)Oc1cc(OC(=O)N(C)C)cc(C(O)CNC(C)(C)C)c1 (stereo not drawn) [BAMBUTEROL] | Not Active | Not Active | Not Active | Not Active | Not Active | – | – |
| c1ccc(Nc2ccc(Nc3ccccc3)cc2)cc1 | Not Active | Not Active | Not Active | Not Active | Not Active | – | – |
| Cc1cc(C(C#N)c2ccc(Cl)cc2)c(Cl)cc1NC(=O)c1cc(I)cc(I)c1O (stereo not drawn) [CLOSANTEL] | Not Active | Not Active | Not Active | Not Active | Not Active | – | – |
| Cc1ccc2cc3c(ccc4ccccc43)c3c2c1CC3 [3-METHYLCHOLANTHRENE] | Not Active | Not Active | Not Active | Not Active | Not Active | – | – |
| Nc1nc2c(ncn2CCC(CO)CO)c(=O)[nH]1 [PENCICLOVIR] | Not Active | Not Active | Not Active | Not Active | Not Active | – | – |
| CC1Cc2ccccc2N1NC(=O)c1ccc(Cl)c(S(N)(=O)=O)c1 (stereo not drawn) [INDAPAMIDE] | Not Active | Not Active | Not Active | Not Active | Not Active | – | – |
| Cc1ccc(-c2cc(C(F)(F)F)nn2-c2ccc(S(N)(=O)=O)cc2)cc1 [CELECOXIB] | Not Active | Not Active | Not Active | Not Active | Not Active | – | – |
| CCCCc1nc(Cl)c(CO)n1Cc1ccc(-c2ccccc2-c2nnn[nH]2)cc1 [LOSARTAN] | Not Active | Not Active | Not Active | Not Active | Not Active | – | – |
| CC(NC(C)(C)C)C(=O)c1cccc(Cl)c1 (stereo not drawn) [BUPROPION] | Not Active | Not Active | Not Active | Not Active | Not Active | – | – |
